These results are taken from PubChem BioAssay AID256 (DTP/NCI, 2004).

For the assay, the system named is CD2F1 mice, L1210 leukemia ip, survival T/C. In words: NCI In Vivo Anticancer Drug Screen. Data for tumor model L1210 Leukemia (intraperitoneal) in CD2F1 (CDF1) mice. The note with it: higher = longer survival. Summed up:
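Ratio T/C, where T is the treated-group value and C the vehicle-dosed control value, from mice implanted with a transplantable tumor.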

[1] abbreviates: endpoint: mean survival time, dose: 50.0 mg/kg/injection, schedule: Q01DX009 (ip), vehicle: saline with Tween-80.
[2] abbreviates: endpoint: mean survival time, dose: 100.0 mg/kg/injection, schedule: Q01DX009 (ip), vehicle: saline with Tween-80.
The mark [3] stands for this setting: endpoint: mean survival time, dose: 200.0 mg/kg/injection, schedule: Q01DX009 (ip), vehicle: saline with Tween-80.
The mark [4] stands for this setting: endpoint: mean survival time, dose: 400.0 mg/kg/injection, schedule: Q01DX009 (ip), vehicle: saline with Tween-80.
Where [5] appears, read: endpoint: mean survival time, dose: 100.0 mg/kg/injection, schedule: Q01DX001 (ip), vehicle: saline with Tween-80.
Setting [6] is: endpoint: mean survival time, dose: 200.0 mg/kg/injection, schedule: Q01DX001 (ip), vehicle: saline with Tween-80.
Setting [7] is: endpoint: mean survival time, dose: 100.0 mg/kg/injection, schedule: Q04DX003 (ip), vehicle: saline.
[8] abbreviates: endpoint: mean survival time, dose: 100.0 mg/kg/injection, schedule: Q04DX003 (ip), vehicle: saline with Tween-80.
The mark [9] stands for this setting: endpoint: mean survival time, dose: 200.0 mg/kg/injection, schedule: Q04DX003 (ip), vehicle: saline with Tween-80.
Where [10] appears, read: endpoint: mean survival time, dose: 400.0 mg/kg/injection, schedule: Q04DX003 (ip), vehicle: saline with Tween-80.

Values joined by “and” are separate entries in the source; they are usually repeats but may differ in a detail not shown here. Identical values can stand only once. Inconclusive results and toxic doses are left out.

`COc1cccc2c1CCC1=C2CC=C2CC3(CCC21C)OCCO3` (stereo not given): the T/C runs as follows: (endpoint: mean survival time, dose: 100.0 mg/kg/injection, schedule: Q04DX003 (sc), vehicle: steriod suspending solution) 91 % of control; (endpoint: mean survival time, dose: 200.0 mg/kg/injection, schedule: Q04DX003 (sc), vehicle: steriod suspending solution) 96 % of control; (endpoint: mean survival time, dose: 400.0 mg/kg/injection, schedule: Q04DX003 (sc), vehicle: steriod suspending solution) 97 % of control.
For the compound `Cc1ccc2cc3c(ccc4ccccc43)c3c2c1CC3`, the T/C under setting [1] was 93 % of control, the T/C under setting [2] is 110 % of control, the T/C under setting [3] was 97 % of control and the T/C under setting [4] was 100 % of control.
For `Nc1nc(=S)c2ncn(C3OC(CO)C(O)C3O)c2[nH]1` (stereo not given), the T/C runs as follows: (endpoint: mean survival time, dose: 1.0 mg/kg/injection, schedule: Q01DX005 (ip), vehicle: saline + alcohol) 154 % of control; (endpoint: mean survival time, dose: 2.0 mg/kg/injection, schedule: Q01DX005 (ip), vehicle: saline + alcohol) 152 % of control; (endpoint: mean survival time, dose: 4.0 mg/kg/injection, schedule: Q01DX005 (ip), vehicle: saline + alcohol) 150 % of control; (endpoint: mean survival time, dose: 10.0 mg/kg/injection, schedule: Q03DX003 (ip), vehicle: saline) 151 % of control; (endpoint: mean survival time, dose: 10.0 mg/kg/injection, schedule: Q04DX003 (ip), vehicle: saline) 163 % of control; (endpoint: mean survival time, dose: 20.0 mg/kg/injection, schedule: Q01DX007 (ip), vehicle: saline) 107 % of control. Besides, the T/C was 151 % of control (endpoint: mean survival time, dose: 20.0 mg/kg/injection, schedule: Q03DX003 (ip), vehicle: saline); 150 % of control (endpoint: mean survival time, dose: 20.0 mg/kg/injection, schedule: Q04DX003 (ip), vehicle: saline); 113 % of control (endpoint: mean survival time, dose: 37.5 mg/kg/injection, schedule: Q01DX009 (ip), vehicle: saline); 95 % of control (endpoint: mean survival time, dose: 40.0 mg/kg/injection, schedule: Q01DX009 (ip), vehicle: saline); 164 % of control (endpoint: mean survival time, dose: 40.0 mg/kg/injection, schedule: Q04DX003 (ip), vehicle: saline); 89 % of control (endpoint: mean survival time, dose: 75.0 mg/kg/injection, schedule: Q01DX009 (ip), vehicle: saline). The T/C by setting is: (endpoint: mean survival time, dose: 178.0 mg/kg/injection, schedule: Q01DX001 (ip), vehicle: saline) 152 % of control; (endpoint: mean survival time, dose: 267.0 mg/kg/injection, schedule: Q01DX001 (ip), vehicle: saline) 152 % of control; (endpoint: mean survival time, dose: 400.0 mg/kg/injection, schedule: Q01DX001 (ip), vehicle: saline) 159 % of control.
Regarding `O=C(OC1=CCc2ccccc21)c1ccc([N+](=O)[O-])cc1`, the T/C is 101 % of control (endpoint: mean survival time, dose: 50.0 mg/kg/injection, schedule: Q01DX001 (ip), vehicle: saline with Tween-80); 96 % of control and 97 % of control under setting [5]; 121 % of control and 96 % of control under setting [6]; 95 % of control and 97 % of control (endpoint: mean survival time, dose: 400.0 mg/kg/injection, schedule: Q01DX001 (ip), vehicle: saline with Tween-80).
With `COC(=O)C1CCCC(=O)C1C(=O)OC` (stereo not given), the T/C was 95 % of control (endpoint: mean survival time, dose: 100.0 mg/kg/injection, schedule: Q01DX009 (ip), vehicle: other); 101 % of control (endpoint: mean survival time, dose: 200.0 mg/kg/injection, schedule: Q01DX009 (ip), vehicle: other); 92 % of control (endpoint: mean survival time, dose: 400.0 mg/kg/injection, schedule: Q01DX009 (ip), vehicle: other).
For `Cc1cc2nc(CN)[nH]c2cc1C`, the T/C under setting [7] was 98 % of control and the T/C (endpoint: mean survival time, dose: 200.0 mg/kg/injection, schedule: Q04DX003 (ip), vehicle: saline) was 95 % of control.
With `c1ccc(-c2cc(-c3cc(-c4ccccc4)on3)no2)cc1`, the T/C was 91 % of control under setting [1]; 101 % of control under setting [5]; 94 % of control under setting [2]; 100 % of control under setting [6]; 96 % of control under setting [3].
Consider `CC(C)(CO)CCCCCCC(C)(C)CO`, for which the T/C under setting [1] was 98 % of control, the T/C under setting [2] is 106 % of control and the T/C under setting [3] is 106 % of control.
Regarding `CC(=O)c1cccc(NS(=O)(=O)c2ccc(C)cc2)c1`, the T/C is 97 % of control under setting [8], 99 % of control under setting [9] and 99 % of control under setting [10].
As to `Cc1ccc(NC(=O)NC(C)C)c(C)c1`, the T/C reads like this: (endpoint: mean survival time, dose: 6.25 mg/kg/injection, schedule: Q01DX009 (ip), vehicle: saline with Tween-80) 97 % of control; (endpoint: mean survival time, dose: 12.5 mg/kg/injection, schedule: Q01DX009 (ip), vehicle: saline with Tween-80) 100 % of control; (endpoint: mean survival time, dose: 25.0 mg/kg/injection, schedule: Q01DX009 (ip), vehicle: saline with Tween-80) 97 % of control.
Take `Cc1cccc(/C=N\OCCc2ccccc2)n1`: the T/C is 94 % of control under setting [2]; 100 % of control under setting [8]; 98 % of control under setting [3]; 96 % of control under setting [9]; 93 % of control under setting [4]; 91 % of control under setting [10].
As to `OCc1c(Cl)c(Cl)c(CO)c(Cl)c1Cl`, the T/C was 95 % of control under setting [2]; 102 % of control under setting [8]; 90 % of control under setting [3]; 100 % of control under setting [9]; 94 % of control under setting [4]; 96 % of control under setting [10].
Regarding `[O]=[Mo]`, the T/C under setting [7] was 107 % of control.
As to `C=C(C)C1CCC2(COS(=O)(=O)c3ccc(C)cc3)CCC3(C)C(CCC4C5(C)CCC(OC6CCCCO6)C(C)(C)C5CCC43C)C12` (stereo not given), the T/C reads like this: (endpoint: mean survival time, dose: 25.0 mg/kg/injection, schedule: Q04DX002 (ip), vehicle: saline with Tween-80) 103 % of control; (endpoint: mean survival time, dose: 50.0 mg/kg/injection, schedule: Q04DX002 (ip), vehicle: saline with Tween-80) 92 % of control.
For `C[S+](C)CCC(N)C(=O)O` (stereo not given), the T/C was 105 % of control (endpoint: median survival time, dose: 3.13 mg/kg/injection, schedule: Q04DX002 (ip), vehicle: saline); 105 % of control (endpoint: median survival time, dose: 6.25 mg/kg/injection, schedule: Q04DX002 (ip), vehicle: saline); 108 % of control (endpoint: median survival time, dose: 12.5 mg/kg/injection, schedule: Q04DX002 (ip), vehicle: saline); 100 % of control (endpoint: median survival time, dose: 25.0 mg/kg/injection, schedule: Q04DX002 (ip), vehicle: saline); 117 % of control (endpoint: median survival time, dose: 50.0 mg/kg/injection, schedule: Q04DX002 (ip), vehicle: saline).
In the case of `CCCCCCCCCCC(Sc1n[nH]c(=O)[nH]c1=O)C(=O)OCC` (stereo not given), the T/C by setting is: (endpoint: mean survival time, dose: 12.5 mg/kg/injection, schedule: Q01DX005 (ip), vehicle: distilled water + Tween-80) 97 % of control; (endpoint: mean survival time, dose: 25.0 mg/kg/injection, schedule: Q01DX005 (ip), vehicle: distilled water + Tween-80) 97 % of control; (endpoint: mean survival time, dose: 50.0 mg/kg/injection, schedule: Q01DX005 (ip), vehicle: distilled water + Tween-80) 95 % of control; (endpoint: mean survival time, dose: 100.0 mg/kg/injection, schedule: Q01DX005 (ip), vehicle: distilled water + Tween-80) 95 % of control; (endpoint: mean survival time, dose: 200.0 mg/kg/injection, schedule: Q01DX005 (ip), vehicle: distilled water + Tween-80) 97 % of control.
On to `COc1cc(/C=N/NC(=O)COc2ccccc2)ccc1O`, for which the T/C was 89 % of control under setting [2], 89 % of control under setting [3] and 94 % of control under setting [4].
`Cc1ccc(CNc2cc(C)ccn2)cc1`: the T/C is, setting by setting: under setting [8], 100 % of control; under setting [9], 91 % of control.
